Results: ChEMBL document CHEMBL3526001, “Attenuation of intestinal absorption by major efflux transporters: quantitative tools and strategies using a Caco-2 model” (Drug Metab Dispos, 2011)

Legend:
clinical = conditions: human, in vivo
Description: Fraction absorbed in human

P-gp = assay: in vitro; conditions: human
in vitro [1] = conditions: human, Caco-2
in vitro [2] = conditions: human, Caco-2; remark: listed apart in the source
in vitro [3] = conditions: human, Caco-2; remark: listed apart in the source
[4] = human, caco-2, 2 h, 10 µM
[5] = human, caco-2, 2 h, 10 µM; remark: listed apart in the source

CCCCC(=O)N(Cc1ccc(-c2ccccc2-c2nnn[nH]2)cc1)[C@H](C(=O)O)C(C)C
Fa (clinical): 25%
efflux ratio at 2 h, 10 µM (P-gp; Caco-2): 2.9
efflux ratio at 2 h, 10 µM (in vitro [1]): 4.1
Papp B→A at 2 h, 10 µM (in vitro [2]): 1.7 ×10⁻⁶ cm/s
Papp A→B at 2 h, 10 µM (in vitro [3]): 0.4 ×10⁻⁶ cm/s

CC(C)(C)NC(=O)[C@@H]1C[C@@H]2CCCC[C@@H]2CN1C[C@@H](O)[C@H](Cc1ccccc1)NC(=O)[C@H](CC(N)=O)NC(=O)c1ccc2ccccc2n1
Fa (clinical): 4%
Papp [4]: 5.6 ×10⁻⁶ cm/s
Papp [5]: 0.4 ×10⁻⁶ cm/s

CC(C)CN(C[C@@H](O)[C@H](Cc1ccccc1)NC(=O)O[C@H]1CCOC1)S(=O)(=O)c1ccc(N)cc1
Fa (clinical): 70%
Papp A→B at 2 h, 10 µM (in vitro [3]): 8 ×10⁻⁶ cm/s

CNS(=O)(=O)Cc1ccc2[nH]cc(CCN(C)C)c2c1
efflux ratio at 2 h, 10 µM (P-gp; Caco-2, with LY335979 1 uM): 0.5
efflux ratio at 2 h, 10 µM (in vitro [1]): 1.4
Papp B→A at 2 h, 10 µM (in vitro [2]): 2.2 ×10⁻⁶ cm/s
Papp A→B at 2 h, 10 µM (in vitro [3]): 1.5 ×10⁻⁶ cm/s

CC1=C(CC(=O)O)c2cc(F)ccc2/C1=C\c1ccc([S+](C)[O-])cc1 (stereo unspecified)
Fa (clinical): 90%
Papp [4]: 13.5 ×10⁻⁶ cm/s
efflux ratio at 2 h, 10 µM (P-gp; Caco-2, with LY335979 1 uM): 2.6
efflux ratio at 2 h, 10 µM (in vitro [1]): 3.6
Papp [5]: 2 ×10⁻⁶ cm/s

O=C(O)CN(CCN(CC(=O)O)Cc1ccccc1O)Cc1ccccc1O
efflux ratio at 2 h, 10 µM (P-gp; Caco-2, with LY335979 1 uM): 2
efflux ratio at 2 h, 10 µM (in vitro [1]): 2.1
Papp B→A at 2 h, 10 µM (in vitro [2]): 0.04 ×10⁻⁶ cm/s
Papp A→B at 2 h, 10 µM (in vitro [3]): 0.02 ×10⁻⁶ cm/s

CC(C)(C)NC(=O)[C@@H]1CN(Cc2cccnc2)CCN1C[C@@H](O)C[C@@H](Cc1ccccc1)C(=O)N[C@H]1c2ccccc2C[C@H]1O.O
Fa (clinical): 63%
efflux ratio at 2 h, 10 µM (P-gp; Caco-2): 0.8
efflux ratio at 2 h, 10 µM (in vitro [1]): 9.7
Papp B→A at 2 h, 10 µM (in vitro [2]): 22.8 ×10⁻⁶ cm/s
Papp A→B at 2 h, 10 µM (in vitro [3]): 2.4 ×10⁻⁶ cm/s

Cc1c(O)cccc1C(=O)N[C@@H](CSc1ccccc1)[C@H](O)CN1C[C@H]2CCCC[C@H]2C[C@H]1C(=O)NC(C)(C)C
Fa (clinical): 3%
efflux ratio at 2 h, 10 µM (P-gp; Caco-2, with LY335979 1 uM): 0.7
efflux ratio at 2 h, 10 µM (in vitro [1]): 2.5
Papp B→A at 2 h, 10 µM (in vitro [2]): 1.7 ×10⁻⁶ cm/s
Papp A→B at 2 h, 10 µM (in vitro [3]): 0.7 ×10⁻⁶ cm/s

CCCC(=O)Nc1ccc(OCC(O)CNC(C)C)c(C(C)=O)c1 (stereo unspecified) [ACEBUTOLOL]
Fa (clinical): 70%
efflux ratio at 2 h, 10 µM (P-gp; Caco-2): 1
efflux ratio at 2 h, 10 µM (in vitro [1]): 3.6
Papp B→A at 2 h, 10 µM (in vitro [2]): 4.1 ×10⁻⁶ cm/s
Papp A→B at 2 h, 10 µM (in vitro [3]): 1.1 ×10⁻⁶ cm/s

COCc1c(C(C)C)nc(C(C)C)c(/C=C/[C@@H](O)C[C@@H](O)CC(=O)O)c1-c1ccc(F)cc1 [CERIVASTATIN]
Fa (clinical): 98%

O=C(O)COCCN1CCN(C(c2ccccc2)c2ccc(Cl)cc2)CC1 (stereo unspecified) [CETIRIZINE]
Fa (clinical): 66%

CCN(CC)CCCC(C)Nc1ccnc2cc(Cl)ccc12 (stereo unspecified) [CHLOROQUINE]
Fa (clinical): 89%

CC[C@H]1OC(=O)[C@H](C)[C@@H](O[C@H]2C[C@@](C)(OC)[C@@H](O)[C@H](C)O2)[C@H](C)[C@@H](O[C@@H]2O[C@H](C)C[C@H](N(C)C)[C@H]2O)[C@](C)(OC)C[C@@H](C)C(=O)[C@H](C)[C@@H](O)[C@]1(C)O [CLARITHROMYCIN]
Fa (clinical): 50%
efflux ratio at 2 h, 10 µM (P-gp; Caco-2): 0.8
efflux ratio at 2 h, 10 µM (in vitro [1]): 5.1
Papp B→A at 2 h, 10 µM (in vitro [2]): 18 ×10⁻⁶ cm/s
Papp A→B at 2 h, 10 µM (in vitro [3]): 3.5 ×10⁻⁶ cm/s

OCCN(CCO)c1nc(N2CCCCC2)c2nc(N(CCO)CCO)nc(N3CCCCC3)c2n1 [DIPYRIDAMOLE]
Fa (clinical): 66%

OC(Cn1cncn1)(Cn1cncn1)c1ccc(F)cc1F [FLUCONAZOLE]
efflux ratio at 2 h, 10 µM (P-gp; Caco-2): 0.1
efflux ratio at 2 h, 10 µM (in vitro [1]): 0.6
Papp B→A at 2 h, 10 µM (in vitro [2]): 6.7 ×10⁻⁶ cm/s
Papp A→B at 2 h, 10 µM (in vitro [3]): 11.6 ×10⁻⁶ cm/s

CNCCC(Oc1ccc(C(F)(F)F)cc1)c1ccccc1 (stereo unspecified) [FLUOXETINE]
Fa (clinical): 70%

O=C(CCCN1CCC(O)(c2ccc(Cl)cc2)CC1)c1ccc(F)cc1 [HALOPERIDOL]
Fa (clinical): 60%
efflux ratio at 2 h, 10 µM (P-gp; Caco-2, with LY335979 1 uM): 0.4
efflux ratio at 2 h, 10 µM (in vitro [1]): 0.4
Papp B→A at 2 h, 10 µM (in vitro [2]): 1.8 ×10⁻⁶ cm/s
Papp A→B at 2 h, 10 µM (in vitro [3]): 4.1 ×10⁻⁶ cm/s

Cc1ccc(NC(=O)c2ccc(CN3CCN(C)CC3)cc2)cc1Nc1nccc(-c2cccnc2)n1 [IMATINIB]
Fa (clinical): 67%

Nc1cc(-c2ccncc2)c[nH]c1=O [INAMRINONE]
Papp [4]: 16.6 ×10⁻⁶ cm/s
efflux ratio at 2 h, 10 µM (P-gp; Caco-2, with LY335979 1 uM): 3.3
efflux ratio at 2 h, 10 µM (in vitro [1]): 1.4
Papp [5]: 7.5 ×10⁻⁶ cm/s

CCc1c2c(nc3ccc(OC(=O)N4CCC(N5CCCCC5)CC4)cc13)-c1cc3c(c(=O)n1C2)COC(=O)[C@]3(O)CC [IRINOTECAN]
efflux ratio at 2 h, 10 µM (P-gp; Caco-2, with LY335979 1 uM): 2.7
efflux ratio at 2 h, 10 µM (in vitro [1]): 3.7
Papp B→A at 2 h, 10 µM (in vitro [2]): 5.1 ×10⁻⁶ cm/s
Papp A→B at 2 h, 10 µM (in vitro [3]): 1.4 ×10⁻⁶ cm/s
